# Measurements reported in ChEMBL document CHEMBL3108676, “Discovery of a Novel Class of Imidazo[1,2-a]Pyridines with Potent PDGFR Activity and Oral Bioavailability” (ACS Med Chem Lett, 2014).
# The source made the active and inactive calls. No cut-off for these calls is given here.
# What was measured:
# [1] = molecular target: Macrophage colony-stimulating factor 1 receptor (Homo sapiens, UniProt P07333)
# Description: Inhibition of cFMS (unknown origin)
# [2] = molecular target: T1, Platelet-derived growth factor receptor beta (Mus musculus, UniProt P05622); assay: Inhibition of PDGF-induced PDGFRbeta phosphorylation in mouse NIH3T3 cells incubated for 1 hr prior to PDGF induction measured after 15 mins by fluorescence assay; type: cell-based
# [3] = test system: Rattus norvegicus; assay: (§1) Cmax in rat at 10 mg/kg, po; type: ADME, organism-based; parameters: dose 10 mg/kg, route oral; details: in vivo
# [4] = molecular target: T1, Platelet-derived growth factor receptor beta; assay: Inhibition of PDGF-induced PDGFRbeta phosphorylation in mouse NIH3T3 cells incubated for 1 hr prior to PDGF induction measured after 15 mins by fluorescence assay in presence of 50% human plasma; type: cell-based
# [5] = molecular target: Mast/stem cell growth factor receptor Kit (Homo sapiens, UniProt P10721); assay: Inhibition of cKIT (unknown origin)
# [6] = test system: Rattus norvegicus; assay: (§2) Oral bioavailability in rat at 10 mg/kg; type: ADME, organism-based; details: in vivo
# [7] = molecular target: Cytochrome P450 3A4 (Homo sapiens, UniProt P08684); assay: Inhibition of CYP3A4 (unknown origin); type: ADME
# [8] = test system: Rattus norvegicus; assay: (§3) AUC in rat at 10 mg/kg, po; type: ADME, organism-based, Plasma; parameters: dose 10 mg/kg, route oral; details: in vivo
# [9] = (§4) Apparent permeability across apical to basolateral side in pig LLC-PK1 cells; type: ADME, cell-based, Sus scrofa; details: LLC-PK1
# [10] = molecular target: Cytochrome P450 2D6 (Homo sapiens, UniProt P10635); assay: Inhibition of CYP2D6 (unknown origin); type: ADME
# [11] = molecular target: T2, Cytochrome P450 1A2 (Homo sapiens, UniProt P05177); assay: Inhibition of CYP1A2 (unknown origin); type: ADME
# T2 sequence (P05177 whole entry): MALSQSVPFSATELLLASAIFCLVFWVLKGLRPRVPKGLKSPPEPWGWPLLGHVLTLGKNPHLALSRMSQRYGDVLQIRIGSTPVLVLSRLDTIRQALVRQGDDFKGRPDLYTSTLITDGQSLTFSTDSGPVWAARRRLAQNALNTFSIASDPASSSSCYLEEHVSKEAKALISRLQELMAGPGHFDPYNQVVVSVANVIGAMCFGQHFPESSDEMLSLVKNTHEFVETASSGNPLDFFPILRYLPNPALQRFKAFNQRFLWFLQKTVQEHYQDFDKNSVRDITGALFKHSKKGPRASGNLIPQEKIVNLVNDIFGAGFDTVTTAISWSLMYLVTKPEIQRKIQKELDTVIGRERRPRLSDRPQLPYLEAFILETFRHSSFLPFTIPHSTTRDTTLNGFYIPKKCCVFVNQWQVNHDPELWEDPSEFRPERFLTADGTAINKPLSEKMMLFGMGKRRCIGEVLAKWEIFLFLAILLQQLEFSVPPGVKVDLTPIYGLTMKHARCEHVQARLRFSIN
# [12] = molecular target: Cytochrome P450 2C19 (Homo sapiens, UniProt P33261); assay: Inhibition of CYP2C19 (unknown origin); type: ADME
# [13] = test system: MDR1; assay: Apparent permeability across apical to basolateral side in pig LLC-PK1 cells expressing MDR1 assessed as compound recovery; type: ADME, cell-based, Sus scrofa; details: read-out: Papp
# [14] = molecular target: Cytochrome P450 2C9 (Homo sapiens, UniProt P11712); assay: Inhibition of CYP2C9 (unknown origin); type: ADME
# [15] = Dissociation constant, pKa of the compound; type: physicochemical
# [16] = as §1; type: ADME, organism-based; parameters: dose 10 mg/kg, route oral; details: in vivo
# [17] = as §2; type: ADME, organism-based; details: in vivo
# [18] = Clearance in rat at 1 mg/kg, iv; type: ADME, organism-based; parameters: dose 1 mg/kg, route intravenous; details: in vivo
# [19] = as §3; type: ADME, organism-based, Plasma; parameters: dose 10 mg/kg, route oral; details: plasma
# [20] = Cmax in cynomolgus monkey at 30 mg/kg, po; type: ADME, organism-based, Macaca fascicularis; parameters: dose 30 mg/kg, route oral; details: in vivo
# [21] = test system: Rattus norvegicus; assay: Toxicity in rat up to 50 mg/kg, po bid administered for 2 weeks; type: organism-based; parameters: dose 50 mg/kg, route oral; details: in vivo, 336 h
# [22] = test system: LLC-PK1; assay: as §4; type: ADME, cell-based, Sus scrofa; details: llc-pk1
# [23] = AUC in cynomolgus monkey at 30 mg/kg, po; type: ADME, organism-based, Macaca fascicularis; parameters: dose 30 mg/kg, route oral; details: plasma
# [24] = Oral bioavailability in cynomolgus monkey at 30 mg/kg; type: ADME, organism-based, Macaca fascicularis; details: in vivo
# [25] = molecular target: Voltage-gated inwardly rectifying potassium channel KCNH2 (Homo sapiens, UniProt Q12809); assay: Inhibition of human ERG
# [26] = test system: Mus musculus; assay: In vivo inhibition of PDGFR phosphorylation in tumor of nu/nu nude mouse xenografted with rat C6 cells administered as po qd after 2 to 6 hrs; type: functional, organism-based
# [27] = Solubility of the compound; type: physicochemical
# [28] = test system: Mus musculus; assay: In vivo inhibition of PDGFR phosphorylation in tumor of nu/nu nude mouse xenografted with rat C6 cells at 10 to 100 mg/kg, po qd after 12 hrs; type: functional, organism-based
# Cytochrome P450 2D6, sequence (P10635 whole entry): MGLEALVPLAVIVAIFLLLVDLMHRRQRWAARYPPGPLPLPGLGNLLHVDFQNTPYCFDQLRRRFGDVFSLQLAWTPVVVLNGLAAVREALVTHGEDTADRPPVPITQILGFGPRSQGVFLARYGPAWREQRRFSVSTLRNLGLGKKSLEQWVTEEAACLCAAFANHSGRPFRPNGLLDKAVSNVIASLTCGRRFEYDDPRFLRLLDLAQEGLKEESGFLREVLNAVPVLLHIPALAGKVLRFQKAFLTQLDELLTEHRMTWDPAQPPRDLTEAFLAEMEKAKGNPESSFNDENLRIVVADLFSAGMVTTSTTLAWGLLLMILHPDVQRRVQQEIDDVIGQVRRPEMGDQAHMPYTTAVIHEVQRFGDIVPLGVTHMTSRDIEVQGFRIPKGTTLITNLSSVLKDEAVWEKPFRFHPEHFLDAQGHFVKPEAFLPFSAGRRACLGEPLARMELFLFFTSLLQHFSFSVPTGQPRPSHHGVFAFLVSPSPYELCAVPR
# T1 sequence (P05622 whole entry): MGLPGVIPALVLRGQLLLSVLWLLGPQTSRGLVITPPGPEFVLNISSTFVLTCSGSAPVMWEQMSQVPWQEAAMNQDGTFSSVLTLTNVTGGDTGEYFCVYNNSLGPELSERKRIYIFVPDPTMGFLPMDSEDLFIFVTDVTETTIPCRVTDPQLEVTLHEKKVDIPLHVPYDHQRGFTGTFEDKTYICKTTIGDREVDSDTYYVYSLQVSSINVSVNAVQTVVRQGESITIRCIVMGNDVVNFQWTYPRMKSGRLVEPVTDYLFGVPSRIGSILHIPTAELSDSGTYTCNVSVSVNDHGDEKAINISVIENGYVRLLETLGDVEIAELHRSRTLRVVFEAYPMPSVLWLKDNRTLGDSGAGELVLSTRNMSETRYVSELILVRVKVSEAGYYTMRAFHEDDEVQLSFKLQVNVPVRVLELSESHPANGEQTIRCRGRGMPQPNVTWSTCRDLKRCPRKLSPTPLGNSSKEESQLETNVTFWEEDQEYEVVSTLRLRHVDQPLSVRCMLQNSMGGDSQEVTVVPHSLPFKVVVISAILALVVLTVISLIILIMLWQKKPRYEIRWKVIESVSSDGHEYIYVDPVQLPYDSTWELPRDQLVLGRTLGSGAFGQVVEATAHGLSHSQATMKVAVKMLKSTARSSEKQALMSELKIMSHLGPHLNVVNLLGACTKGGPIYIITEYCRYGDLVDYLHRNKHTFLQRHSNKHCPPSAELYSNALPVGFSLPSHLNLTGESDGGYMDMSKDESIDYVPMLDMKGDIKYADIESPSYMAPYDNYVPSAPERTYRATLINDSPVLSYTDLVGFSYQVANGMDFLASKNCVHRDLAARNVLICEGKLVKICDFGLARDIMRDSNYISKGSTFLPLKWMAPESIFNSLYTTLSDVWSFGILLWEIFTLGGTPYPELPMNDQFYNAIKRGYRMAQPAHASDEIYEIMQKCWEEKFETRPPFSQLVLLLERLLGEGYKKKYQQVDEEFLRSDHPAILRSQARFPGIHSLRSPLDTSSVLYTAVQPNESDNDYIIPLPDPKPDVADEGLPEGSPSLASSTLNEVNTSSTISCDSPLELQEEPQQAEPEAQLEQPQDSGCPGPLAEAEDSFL
# Cytochrome P450 3A4, sequence (P08684 whole entry): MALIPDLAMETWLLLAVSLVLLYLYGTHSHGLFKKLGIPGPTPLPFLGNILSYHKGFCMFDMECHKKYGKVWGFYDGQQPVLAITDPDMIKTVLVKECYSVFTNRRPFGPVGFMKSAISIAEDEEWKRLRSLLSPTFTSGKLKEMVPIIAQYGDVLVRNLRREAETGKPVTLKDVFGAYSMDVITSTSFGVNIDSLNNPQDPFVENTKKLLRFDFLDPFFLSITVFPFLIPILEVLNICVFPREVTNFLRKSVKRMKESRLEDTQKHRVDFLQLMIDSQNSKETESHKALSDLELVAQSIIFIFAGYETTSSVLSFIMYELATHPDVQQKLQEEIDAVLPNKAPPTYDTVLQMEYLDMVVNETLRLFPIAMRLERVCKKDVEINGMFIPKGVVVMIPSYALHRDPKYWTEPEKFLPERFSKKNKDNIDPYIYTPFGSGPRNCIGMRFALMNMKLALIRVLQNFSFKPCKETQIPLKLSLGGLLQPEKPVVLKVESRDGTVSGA
# Cytochrome P450 2C9, sequence (P11712 whole entry): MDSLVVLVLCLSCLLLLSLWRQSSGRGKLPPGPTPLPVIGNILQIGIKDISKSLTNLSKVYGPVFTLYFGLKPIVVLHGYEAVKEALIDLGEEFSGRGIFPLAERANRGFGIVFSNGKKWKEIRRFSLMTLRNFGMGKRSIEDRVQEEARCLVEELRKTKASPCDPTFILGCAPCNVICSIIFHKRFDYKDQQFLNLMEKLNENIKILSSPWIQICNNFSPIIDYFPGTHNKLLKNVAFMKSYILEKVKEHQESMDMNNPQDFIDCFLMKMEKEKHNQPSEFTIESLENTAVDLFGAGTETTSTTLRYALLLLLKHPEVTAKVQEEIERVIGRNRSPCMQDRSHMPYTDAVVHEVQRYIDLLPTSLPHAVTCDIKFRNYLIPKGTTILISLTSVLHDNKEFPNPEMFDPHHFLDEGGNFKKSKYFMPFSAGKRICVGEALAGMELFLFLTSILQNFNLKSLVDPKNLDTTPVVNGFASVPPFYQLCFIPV
# Macrophage colony-stimulating factor 1 receptor, sequence (P07333 whole entry): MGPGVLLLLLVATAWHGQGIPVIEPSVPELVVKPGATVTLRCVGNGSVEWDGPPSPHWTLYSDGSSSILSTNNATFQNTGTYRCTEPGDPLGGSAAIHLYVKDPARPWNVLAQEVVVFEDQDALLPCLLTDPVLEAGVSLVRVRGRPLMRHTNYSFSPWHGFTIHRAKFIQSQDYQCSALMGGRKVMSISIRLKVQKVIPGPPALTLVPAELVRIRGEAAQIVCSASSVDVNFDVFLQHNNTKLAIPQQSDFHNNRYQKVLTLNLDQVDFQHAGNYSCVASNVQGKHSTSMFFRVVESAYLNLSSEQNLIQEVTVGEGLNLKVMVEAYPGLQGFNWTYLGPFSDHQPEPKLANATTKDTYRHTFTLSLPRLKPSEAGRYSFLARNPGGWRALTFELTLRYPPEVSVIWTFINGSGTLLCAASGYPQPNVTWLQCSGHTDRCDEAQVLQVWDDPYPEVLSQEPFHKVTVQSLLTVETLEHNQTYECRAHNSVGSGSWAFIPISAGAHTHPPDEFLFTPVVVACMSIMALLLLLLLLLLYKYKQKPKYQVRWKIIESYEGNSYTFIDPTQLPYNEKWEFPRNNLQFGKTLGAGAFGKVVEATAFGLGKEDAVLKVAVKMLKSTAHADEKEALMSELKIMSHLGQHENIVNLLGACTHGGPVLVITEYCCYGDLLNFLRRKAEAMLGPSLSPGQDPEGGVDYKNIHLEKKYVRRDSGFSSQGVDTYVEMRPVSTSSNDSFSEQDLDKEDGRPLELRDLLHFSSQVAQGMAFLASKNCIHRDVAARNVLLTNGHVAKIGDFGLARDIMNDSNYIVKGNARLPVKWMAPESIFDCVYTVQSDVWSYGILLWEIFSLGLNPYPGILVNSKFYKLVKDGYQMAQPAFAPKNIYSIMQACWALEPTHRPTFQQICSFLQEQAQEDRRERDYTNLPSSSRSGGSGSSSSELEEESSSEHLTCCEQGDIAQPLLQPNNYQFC
# Mast/stem cell growth factor receptor Kit, sequence (P10721 whole entry): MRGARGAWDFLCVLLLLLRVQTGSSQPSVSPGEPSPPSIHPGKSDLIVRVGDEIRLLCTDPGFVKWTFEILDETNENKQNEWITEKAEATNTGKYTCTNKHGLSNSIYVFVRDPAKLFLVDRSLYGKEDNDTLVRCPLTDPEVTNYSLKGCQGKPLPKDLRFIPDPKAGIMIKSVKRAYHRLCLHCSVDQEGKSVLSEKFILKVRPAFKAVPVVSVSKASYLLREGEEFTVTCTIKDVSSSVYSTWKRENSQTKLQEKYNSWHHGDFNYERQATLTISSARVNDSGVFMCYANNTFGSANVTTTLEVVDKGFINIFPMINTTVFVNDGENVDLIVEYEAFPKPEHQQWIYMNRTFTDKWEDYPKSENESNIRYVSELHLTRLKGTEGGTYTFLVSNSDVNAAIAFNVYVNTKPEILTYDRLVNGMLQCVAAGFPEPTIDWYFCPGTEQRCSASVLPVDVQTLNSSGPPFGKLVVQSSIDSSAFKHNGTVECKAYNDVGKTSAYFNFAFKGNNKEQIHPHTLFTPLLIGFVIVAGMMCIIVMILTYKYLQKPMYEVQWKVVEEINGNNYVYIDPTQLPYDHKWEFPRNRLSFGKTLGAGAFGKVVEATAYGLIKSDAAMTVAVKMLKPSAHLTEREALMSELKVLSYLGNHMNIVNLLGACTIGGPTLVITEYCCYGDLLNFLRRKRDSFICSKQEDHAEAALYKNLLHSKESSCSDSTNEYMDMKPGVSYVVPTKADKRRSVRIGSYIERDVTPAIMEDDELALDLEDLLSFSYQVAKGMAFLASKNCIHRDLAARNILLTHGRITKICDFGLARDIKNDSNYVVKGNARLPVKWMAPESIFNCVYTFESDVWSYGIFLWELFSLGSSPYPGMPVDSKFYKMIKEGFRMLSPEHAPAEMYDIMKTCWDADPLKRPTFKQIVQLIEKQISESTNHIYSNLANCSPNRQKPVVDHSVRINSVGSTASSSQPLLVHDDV
# Cytochrome P450 2C19, sequence (P33261 whole entry): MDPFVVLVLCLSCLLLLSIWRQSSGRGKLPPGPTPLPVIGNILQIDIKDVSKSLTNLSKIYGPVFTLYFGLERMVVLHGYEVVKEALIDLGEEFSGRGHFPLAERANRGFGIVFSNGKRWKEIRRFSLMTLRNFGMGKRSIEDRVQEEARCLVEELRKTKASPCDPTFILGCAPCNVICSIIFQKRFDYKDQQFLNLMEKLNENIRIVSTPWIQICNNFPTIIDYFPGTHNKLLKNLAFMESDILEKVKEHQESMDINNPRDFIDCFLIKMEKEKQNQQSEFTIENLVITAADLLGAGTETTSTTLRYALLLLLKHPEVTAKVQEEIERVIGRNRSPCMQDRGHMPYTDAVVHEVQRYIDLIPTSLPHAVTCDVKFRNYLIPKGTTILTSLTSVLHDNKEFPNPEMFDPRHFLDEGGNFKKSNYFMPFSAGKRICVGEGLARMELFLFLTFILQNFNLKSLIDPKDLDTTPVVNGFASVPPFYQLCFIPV
smiles,measurement,setting,value
COCCOc1ccn2c(-c3ccc4cccc(OCCN)c4n3)cnc2c1,IC50,[1],> 1000 nM
same,IC50,[2],176 nM
COCCOc1ccn2c(-c3ccc4cccc(O[C@@H]5CCNC[C@H]5F)c4n3)cnc2c1 (relative stereo),Cmax,[3],120 ng/mL
same,IC50,[4],63 nM
same,IC50,[5],682 nM
same,F,[6],30%
same,IC50,[7],> 10000 nM
same,AUC,[8],2100 ng·h/mL
same,Papp A→B,[9],4.4 ×10⁻⁶ cm/s
same,IC50,[10],> 10000 nM
same,IC50,[11],> 10000 nM
same,IC50,[12],> 10000 nM
same,IC50,[2],4 nM
same,recovery,[13],30%
same,IC50,[14],> 10000 nM
same,pKa,[15],7.4
COCCOc1ccn2c(-c3ccc4cccc(O[C@@H]5CCNC[C@@H]5F)c4n3)cnc2c1 (relative stereo),Cmax,[16],70 ng/mL
same,IC50,[4],25 nM
same,IC50,[5],> 1000 nM
same,bioavailability,[17],13%
same,IC50,[7],> 10000 nM
same,clearance,[18],28 mL/min/kg
same,AUC,[19],730 ng·h/mL
same,Papp A→B,[9],2.7 ×10⁻⁶ cm/s
same,IC50,[10],5880 nM
same,IC50,[11],> 10000 nM
same,IC50,[12],> 10000 nM
same,IC50,[2],4 nM
same,recovery,[13],30%
same,IC50,[14],> 10000 nM
same,pKa,[15],7.5
COCCOc1ccn2c(-c3ccc4cccc(O[C@H]5CN[C@H](C(=O)OC)C5)c4n3)cnc2c1,IC50,[1],> 1000 nM
same,IC50,[2],958 nM
COCCOc1ccn2c(-c3ccc4cccc(O[C@@H]5CCNC[C@H]5F)c4n3)cnc2c1 [listing 1 of 2 here],Cmax,[16],160 ng/mL
same,IC50,[4],70 nM
same,IC50,[5],430 nM
same,Cmax,[20],190 ng/mL
same,bioavailability,[17],28%
same,clearance,[18],20 mL/min/kg
same,Activity,[21],Non-toxic
same,AUC,[19],2300 ng·h/mL
same,Papp,[22],3.7 ×10⁻⁶ cm/s
same,IC50,[10],> 10000 nM
same,IC50,[11],> 10000 nM
same,AUC,[23],950 ng·h/mL
same,IC50,[12],> 10000 nM
same,IC50,[2],3 nM
same,bioavailability,[24],6%
same,IC50,[25],3900 nM
same,IC50,[14],> 10000 nM
same,EC50,[26],0.065 µg/mL
COCCOc1ccn2c(-c3ccc4cccc(OC5CCN(C)CC5)c4n3)cnc2c1,IC50,[2],9 nM
COCCOc1ccn2c(-c3ccc4cccc(O[C@@H]5CNC[C@H]5OC)c4n3)cnc2c1 (racemic),IC50,[4],> 1000 nM
same,IC50,[1],> 1000 nM
same,IC50,[2],10 nM
COCCOc1ccn2c(-c3ccc4cccc(O[C@@H]5CCNC[C@@H]5O)c4n3)cnc2c1 (racemic),IC50,[2],2 nM
COCCOc1ccn2c(-c3ccc4cccc(OCC(C)(C)CN)c4n3)cnc2c1,IC50,[5],> 1000 nM
same,IC50,[2],18 nM
COCCOc1ccn2c(-c3ccc4cccc(O[C@H]5CCCNC5)c4n3)cnc2c1,IC50,[2],5 nM
COCCOc1ccn2c(-c3ccc4cccc(O[C@H]5CCNC[C@@H]5F)c4n3)cnc2c1,IC50,[4],55 nM
same,IC50,[5],491 nM
same,IC50,[7],> 10000 nM
same,IC50,[10],> 10000 nM
same,IC50,[11],> 10000 nM
same,IC50,[12],> 10000 nM
same,IC50,[2],3 nM
same,IC50,[14],> 10000 nM
COCCOc1ccn2c(-c3ccc4cccc(O[C@H]5CC[C@H](N)CC5)c4n3)cnc2c1,IC50,[1],> 1000 nM
same,IC50,[2],28 nM
COCCOc1ccn2c(-c3ccc4cccc(OC5CCNCC5)c4n3)cnc2c1,Cmax,[16],70 ng/mL
same,IC50,[4],25 nM
same,IC50,[5],961 nM
same,bioavailability,[17],16%
same,IC50,[7],> 10000 nM
same,clearance,[18],33 mL/min/kg
same,IC50,[1],> 1000 nM
same,AUC,[19],800 ng·h/mL
same,Papp A→B,[9],16.3 ×10⁻⁶ cm/s
same,solubility,[27],> 1000 µg/mL
same,IC50,[10],> 10000 nM
same,IC50,[11],> 10000 nM
same,IC50,[12],> 10000 nM
same,IC50,[2],3 nM
same,recovery,[13],50%
same,IC50,[14],> 10000 nM
same,pKa,[15],9.3
COCCOc1ccn2c(-c3ccc4cccc(O[C@@H]5CN[C@H](C(=O)OC)C5)c4n3)cnc2c1,IC50,[1],> 1000 nM
same,IC50,[2],> 1000 nM
COCCOc1ccn2c(-c3ccc4cccc(O[C@@H]5CCNC[C@H]5F)c4n3)cnc2c1 [listing 2 of 2 here],inhibition,[28],inactive
same,inhibition,[26],Dose-dependent effect
COCCOc1ccn2c(-c3ccc4cccc(O[C@@H]5CCCNC5)c4n3)cnc2c1,IC50,[2],72 nM
COCCOc1ccn2c(-c3ccc4cccc(OCC5CNCCO5)c4n3)cnc2c1 (racemic),IC50,[1],> 1000 nM
same,IC50,[2],160 nM
COCCOc1ccn2c(-c3ccc4cccc(OCC5CCNCC5)c4n3)cnc2c1,IC50,[1],> 1000 nM
same,IC50,[2],34 nM
COCCOc1ccn2c(-c3ccc4cccc(O[C@@H]5CCNC[C@H]5O)c4n3)cnc2c1 (racemic),IC50,[2],3 nM
COCCOc1ccn2c(-c3ccc4cccc(OCC5(F)CCNCC5)c4n3)cnc2c1,IC50,[2],1 nM
COCCOc1ccn2c(-c3ccc4cccc(OCc5cnc[nH]5)c4n3)cnc2c1,IC50,[1],> 1000 nM
same,IC50,[2],> 1000 nM
COCCOc1ccn2c(-c3ccc4cccc(OCC5CCNC5)c4n3)cnc2c1 (racemic),IC50,[4],29 nM
same,IC50,[2],1 nM
